Measurements published in US9522962B2, “Peptides, conjugates and method for increasing immunogenicity of a vaccine” (Academisch Ziekenhuis Leiden h.o.d.n. LUMC, priority 2010, dated 2016).
Entries after “also recorded” stand apart in the source; their conditions may differ. Read-outs that look alike come from different tables or passages of the source. Square brackets hold non-standard residues; d marks the D form. Ends that are not written are not given here. * marks the point of attachment. Biotin = O=C1N[C@H]2[C@H](CS[C@H]2CCCCC(=O)*)N1; Ahx = NCCCCCC(=O)O

B1: TNP-OVA: non-related protein antigen (OVA) coupled to the hapten TNP (trinitrophenyl group) (conjugate, UniProt P01012 2-386, looked up)
Ovalbumin: GSIGAASMEFCFDVFKELKVHHANENIFYCPIAIMSALAMVYLGAKDSTRTQINKVVRFDKLPGFGDSIEAQCGTSVNVHSSLRDILNQITKPNDVYSFSLASRLYAEERYPILPEYLQCVKELYRGGLEPINFQTAADQARELINSWVESQTNGIIRNVLQPSSVDSQTAMVLVNAIVFKGLWEKAFKDEDTQAMPFRVTEQESKPVQMMYQIGLFRVASMASEKMKILELPFASGTMSMLVLLPDEVSGLEQLESIINFEKLTEWTSSNVMEERKIKVYLPRMKMEEKYNLTSVLMAMGITDVFSSSANLSGISSAESLKISQAVHAAHAEINEAGREVVGSAEAGVDAASVSEEFRADHPFLFCIKHIATNAVLFFGRCVSP
modifications: trinitrophenyl hapten conjugate

Tests used:
[1] = test system: antibodies in TETAQUIN® (anti-TTd antibodies); type: binding, human; details: for ELISA OD TETAQUIN: Table 6, conservative substitutions scan of […]
[2] = test system: antibodies in individual human sera (e.g. serum 034960); assay: Tettox ELISA of biotinylated peptides on individual human sera; type: binding; details: for ELISA OD SERUM 034960: Table 6, conservative substitutions scan of […], human serum 034960 diluted 100x
Protocol: a 96-wells plate (preferably from Euro-Diagnostica, Arnhem, The Netherlands) is coated with streptavidin. The streptavidin coated 96 wells plate is blocked with PBS containing 5% BSA (200 μl/well, 1 h, room temperature). Subsequently, the plate is washed three times with PBS containing 0.05% TWEEN20® (polysorbate 20). A biotinylated peptide is coated by 1 h incubation at room temperature with 100 μl/well of a 2 μg/ml solution of the biotinylated peptide in PBS containing 1% BSA. The plate is washed three times with PBS containing 0.05% TWEEN20® (polysorbate 20) followed by incubation for 1 h at room temperature with 100 μl serum from […] a human subject as defined above (preferably having a high titer of anti-TTd antibodies) that had been diluted at least 100, 200, 400, 500 or 1000 times and preferably not more than 100,000, 10,000, 7,500, 5,000 or 2,500 times with PBS containing 1% BSA. Then the plate is washed three times with PBS containing 0.05% TWEEN20®(polysorbate 20). Each well is incubated for 1 h at room temperature with a HRP-conjugated IgG antibody (mouse anti-human IgG-HRP monoclonal, clone G18-145, cat no 555788, Becton Dickinson, 100 μl/well of a 1000× dilution in PBS containing 0.05% TWEEN20® (polysorbate 20)) after which the plate is washed three times with PBS containing 0.05% TWEEN20® (polysorbate 20). Development is performed with 2,2′-azino-di-(3-ethylbenzthiazoline sulfonic acid), ABTS+H2O2 1/1000, 100 μl/well. Optical density is measured at 415 nm with a BIO-RAD, model 680, microplate reader. In each plate, preferably a negative contol is included, more preferably at least in triplicate. A preferred negative contol is serum from a human subject without detectable anti-TTd antibodies. Another preferred negative control is a solution of BSA. A peptide according to (ii) above is a peptide according to the invention if it is bound by antibodies in at least 40, 45, 50, 55, 60, 65, 70, 75, 80, 85, 87, 90, 91, 92, 93, 94, 95, 96, 97, 98, 99% most preferably 100% of the tested human serum samples. A peptide is considered to be bound by antibodies in a serum sample if the determined optical density for that particular serum sample is at least 2.0, more preferably 2.5, 3.0, 3.5 or more times higher as compared to the optical density that is determined for the negative control.
Streptavidin coated 96 wells plates (Euro-Diagnostica) were blocked with PBS containing 5% BSA (200 μl/well, 1 h, room temperature). Plates were washed three times with PBS containing 0.05% TWEEN20® (polysorbate 20). Coating of the biotinylated peptides was performed by 1 h incubation at room temperature with 100 μl/well of a 2 μg/ml solution of the biotinylated peptide in PBS containing 1% BSA. Plates were washed three times with PBS containing 0.05% TWEEN20®. Wells were incubated for 1 h at room temperature with either 100 μl TETAQUIN® […] that had been diluted 800× with PBS containing 1% BSA or with 100 μl human serum that had been diluted 100× with PBS containing 1% BSA. Plates were washed three times with PBS containing 0.05% TWEEN20® (polysorbate 20). Each well was incubated for 1 h at room temperature with a HRP-conjugated IgG antibody (mouse anti-human IgG-HRP monoclonal, clone G18-145, cat no 555788, Becton Dickinson, 100 μl/well of a 1000× dilution in PBS containing 0.05% TWEEN20® (polysorbate 20)). Plates were washed three times with PBS containing 0.05% TWEEN20® (polysorbate 20). Development was performed with 2,2′-azino-di-(3-ethylbenzthiazoline sulfonic acid), ABTS+H2O2 1/1000, 100 μl/well. Optical density was measured at 415 nm with a BIO-RAD, model 680, microplate reader.
Thereafter, the inventors tested these 7 peptides on individual sera, because an epitope is needed to which every person makes antibodies.

OVA-specific CD8 T cells = assay: Systemic antigen-specific T cell priming in TNP-BSA immunized mice challenged with TNP-OVA; type: in vivo
Protocol: Mice were repeatedly immunized with TNP-BSA resulting in high titers of circulating antibodies against the hapten TNP (TNP immunized) or left non-immunized (naïve).
After 1-2 months all mice were injected with naïve OVA-specific CD8 T cells which were labelled with the fluorescent dye CFSE. After 24 hrs the mice were injected with a single dose of TNP-OVA. 3 days later the mice were sacrificed and OVA-specific proliferation of the labelled T cells was analysed in spleen and lymph nodes by flow cytometry (FIGS. 2a and 2b). The symbols represent individual mice. […] Thus, systemic antigen-specific T cell priming can be facilitated by pre-existing circulating antibodies against hapten-epitopes.

Molecule	ELISA OD TETAQUIN [1]	ELISA OD SERUM 034960 [2]	also measured
F I G I T E L R K L E S K I N K V F Z O (FIGITELRKLESKINKVF[Ahx]K(Biotin)) [0942-35]	1.02	0.90	
F I G L T E L K K L E S K I N K V F Z O (FIGLTELKKLESKINKVF[Ahx]K(Biotin)) [0942-31]	0.97	1.19	
F I S I T E L K K L E S K I N K V F Z O (FISITELKKLESKINKVF[Ahx]K(Biotin)) [0942-30]	1.10	1.32	
F L G I T E L K K L E S K I N K V F Z O (FLGITELKKLESKINKVF[Ahx]K(Biotin)) [0942-29]	1.19	1.29	
QYIKANSKFIGITELKKLESKIZO [β32]			binding to TETAQUIN (screen of overlapping 22-mer TTx peptides) ([1]; FIG. 3 (α-chain), FIG. 4 (β-chain)): good binding; also recorded: antibodies present; OD ([1]; Table 2, length variants of peptide β-32, section 'With linker', […] diluted 800x, OD at 415 nm): 1.3; OD ([1]; Table 2, length variants of peptide β-32, section 'Without linker' (sequence listed without Z O), […]): 1.3; ELISA OD, effect of longer spacer and C- versus N-terminal biotinylation ([1]; Table 4, antibody source not given): 1.16; antibodies against the peptide in individual donor sera ([2]; 14 individual sera, FIGS. 5a-5n): All donors have antibodies
Y I G I T E L K K L E S K I N K V F Z O (YIGITELKKLESKINKVF[Ahx]K(Biotin)) [0942-28]	1.23	1.30	
B1			OVA-specific proliferation of CFSE labelled T cells in spleen and lymph nodes (OVA-specific CD8 T cells; TNP immunized mice vs other groups, single dose TNP-OVA, analysed 3 days later by flow cytometry, P<0.001): significantly different; T cell responses against OVA (OVA-specific CD8 T cells; TNP-BSA immunized mice compared to control mice vaccinated with BSA without TNP): much higher level
